Laboratory results taken from the NIST ThermoML archive (doi:10.1021/je201277d).

Legend:
[1] = refractive index (other wavelength) (dimensionless); details: 298.15 K, 101.3 kPa, Liquid
[2] = refractive index (other wavelength) (dimensionless); wn = mass fraction of the nth substance listed; details: 298.15 K, 101.3 kPa, Liquid

C1CCCCC1 [cyclohexane]
[1]
Details | refractive index
Wavelength=670 nm | 1.42253
Wavelength=925 nm | 1.41832

C1CCCCC1 [cyclohexane] + CO
refractive index, [2]
Details | w1 = 0.1 | w1 = 0.2004 | w1 = 0.2999
Wavelength=670 nm | 1.33196 | 1.34128 | 1.34987
Wavelength=925 nm | 1.32811 | 1.33737 | 1.34602

C1CCCCC1 [cyclohexane] + Cc1ccccc1
refractive index, [2]
Details | w1 = 0.0996 | w1 = 0.2002 | w1 = 0.2995 | w1 = 0.4003 | w1 = 0.5004 | w1 = 0.6002 | w1 = 0.7 | w1 = 0.8005 | w1 = 0.9001
Wavelength=670 nm | 1.48158 | 1.47363 | 1.46616 | 1.45883 | 1.45162 | 1.44527 | 1.43903 | 1.43327 | 1.42768
Wavelength=925 nm | 1.47383 | 1.46618 | 1.4592 | 1.45229 | 1.44539 | 1.43956 | 1.43363 | 1.42825 | 1.42296

CO [methanol]
[1]
Details | refractive index
Wavelength=670 nm | 1.32603
Wavelength=925 nm | 1.32235

Cc1ccccc1 [toluene]
[1]
Details | refractive index
Wavelength=670 nm | 1.48998
Wavelength=925 nm | 1.48176

Cc1ccccc1 [toluene] + CO
refractive index, [2]
Details | w1 = 0.1001 | w1 = 0.1994 | w1 = 0.3001 | w1 = 0.4 | w1 = 0.4996 | w1 = 0.6 | w1 = 0.6994 | w1 = 0.8001 | w1 = 0.8994
Wavelength=670 nm | 1.34089 | 1.35612 | 1.37219 | 1.38826 | 1.4056 | 1.42196 | 1.43865 | 1.45699 | 1.47418
Wavelength=925 nm | 1.33686 | 1.35152 | 1.36718 | 1.38279 | 1.39956 | 1.41564 | 1.43182 | 1.44951 | 1.46633
